Source: US7723091B2 (priority 1999, dated 2010)
“And” between values parts separate entries of the source, which are not always exact repeats. Identical values can stand only once. Like-named read-outs stand apart in the source and are kept apart here. Marks after values point to notes of the source that are not given here.

Columns and labels:
[1] = system: Eimeria tenella sporozoites; assay: In vitro invasion of BHK cells by Eimeria tenella sporozoites; type: cell-based; conditions: B. cereus PI-PLC 0.0403 U/mL, recombinant 0.261 U/mL
Method: (§1) Eineria acervulina sporozoites or Eimeria tenella sporozoites and cultured baby hamster kidney (BHK) cells were prepared by published methods. See Augustine, Avian and Poultry Biology Reviews 1:113-122, 2000. For cell pretreatment, cell cultures were overlaid with dilutions of enzymes as described in Table 11, and examined for morphological changes from 5 to 45 min post overlay. After 45 minutes, the monolayer cultures were washed twice, then inoculated with untreated E. acervulina or E. tenella sporozoites. For application during infection, sporozoites were suspended in the appropriate dilution of the enzyme and inoculated immediately into the cell cultures. After 45 minutes incubation, cultures were fixed, stained, and the invasion was quantified.
(§2) Observations were made looking for changes in gross morphology of sporozoites or cells due to enzyme treatment. At the enzyme levels used in these experiments, no morphological change was noted. The sporozoite invasion of the cultured cells was measured after the two methods of enzyme treatment, as well as without enzyme treatment, by histological staining and microscopy procedures. See Augustine, supra.

[2] = system: E. acervulina, E. maxima, and C. perfringens; type: in vivo, broiler chickens; conditions: Trial III; infected; no PI-PLC (T4 mannanase 100 MU/ton; T9 salinomycin 60 g/ton+BMD 50 g/ton)
[3] = system: Eimeria acervulina sporozoites; assay: In vitro invasion of BHK cells by Eimeria acervulina sporozoites; type: cell-based; conditions: B. cereus PI-PLC 0.0403 U/mL, recombinant 0.261 U/mL
Method: as §1, §2

[4] = system: E. acervulina, E. maxima and Clostridium perfringens; type: in vivo, broiler chickens; conditions: infected
E. coli MG1655 = assay: Cylinder plate assay for antibiotic activity; type: cell-based; conditions: E. coli MG1655 testing strain
Method: Fermentation with Bacillus cereus (ATCC 7004) was conducted according to the method described in EXAMPLE 2 except that the initial volume was increased to 20 liters. A test for the presence of antibiotic was conducted with E. coli MG1655 as the testing strain with final fermentation broth or partially purified PI-PLC prepared according to the method described in EXAMPLES 3-5. The test was conducted as a.cylinder plate assay. See Brantner, Pharmazie 52(1):34-40, 1997.

[5] = system: E. acervulina and Clostridium perfringens; type: in vivo, broiler chickens
[6] = system: Eimeria acervulina and Clostridium perfringens; type: in vivo, broiler chickens; conditions: Trial I
[7] = Cell Pretreatment with Enzyme Followed by Wash, Test 1, mannanase 5100 U/mL
[8] = Cell Pretreatment with Enzyme Followed by Wash, Test 2, mannanase 5100 U/mL
[9] = Trial IV Test 13, Man. 5x at 506 MU/ton
[10] = Trial IV, PI-PLC 30 U/lb, Man. 121 MU/ton, BMD 50 g/ton, salinomycin 60 g/ton
[11] = Application of Enzyme During Infection, Test 2, listed as PI-PLC from B. cereus
[12] = Cell Pretreatment with Enzyme Followed by Wash, Test 1, mannanase 5100 U/mL, listed as PI-PLC from B. cereus
[13] = Cell Pretreatment with Enzyme Followed by Wash, Test 2, mannanase 5100 U/mL, listed as PI-PLC from B. cereus
[14] = Trial II T4 (Rec), T7 (Wt), infected, 10 U/lb
[15] = mean of 4 replicates, infected, PI-PLC 0.34 g/ton pure basis (T3, T4) or Sacox 60 g/ton + BMD-50 50 g/ton (T2) in feed
[16] = single replicate (cage) values, infected, PI-PLC 0.34 g/ton pure basis (T3, T4) or Sacox 60 g/ton + BMD-50 50 g/ton (T2) in feed

endo-1,4- -D-mannanase [β-mannanase]
Invasion counts (mean ± standard error of the mean) ([1]; Application of Enzyme During Infection, Test 1, mannanase 5100 U/mL): 46 ± 6^ab | Invasion counts (mean ± standard error of the mean) [1, 7]: 35 ± 1^b | Invasion counts (mean ± standard error of the mean) [1, 8]: 19 ± 5^a | Feed Consumption Day 0-21 [2]: 10.787^abc | Feed Consumption Day 8-21 [2]: 8.435^abc | Feed Conversion Day 0-21 [2]: 1.501^cd | Feed Conversion Day 8-21 [2]: 1.536^c | Lesion Scores E. acer. [2]: 1.16^ab | Lesion Scores E. max. [2]: 1.44^ab | Live Wt. Day 21 [2]: 0.652^bc | Weight AF/G Treatment (weight adjusted feed conversion) [2]: 1.465 | Weight Gain Day 0-21 [2]: 0.611^bc | Weight Gain Day 8-21 [2]: 0.490^b | Invasion counts (mean ± standard error of the mean) [3, 7]: 16 ± 1^b | Invasion counts (mean ± standard error of the mean) [3, 8]: 29 ± 2^ab | Feed Conversion Day 0-21 [4, 9]: 1.740 | Feed Conversion Day 8-21 [4, 9]: 1.813 | Lesion Score E. acer. Upper [4, 9]: 2.13 | Lesion Score E. max. Middle [4, 9]: 2.00 | Live Weight Day 21 [4, 9]: 0.471 | Weight Gain Day 0-21 [4, 9]: 0.437 | Weight Gain Day 8-21 [4, 9]: 0.339 | Feed Conversion Day 0-21 [4, 10]: 1.803 | Feed Conversion Day 8-21 [4, 10]: 1.849 | Lesion Score E. acer. Upper [4, 10]: 1.94 | Lesion Score E. max. Middle [4, 10]: 1.34 | Live Weight Day 21 [4, 10]: 0.483 | Weight Gain Day 0-21 [4, 10]: 0.433 | Weight Gain Day 8-21 [4, 10]: 0.338

Bacitracin methylene disalicylate [reference compound]
Feed Conversion Day 0-21 [4, 10]: 1.707 | Feed Conversion Day 8-21 [4, 10]: 1.770 | Lesion Score E. acer. Upper [4, 10]: 2.25 | Lesion Score E. max. Middle [4, 10]: 1.94 | Live Weight Day 21 [4, 10]: 0.490 | Weight Gain Day 0-21 [4, 10]: 0.453 | Weight Gain Day 8-21 [4, 10]: 0.352

CC[C@@H](C(=O)[C@@H](C)[C@@H](O)[C@H](C)[C@@H]1O[C@@H]([C@@H](CC)C(=O)O)CC[C@@H]1C)[C@H]1O[C@]2(C=C[C@@H](O)[C@]3(CC[C@@](C)([C@H]4CC[C@](O)(CC)[C@H](C)O4)O3)O2)[C@H](C)C[C@@H]1C [S, Salinomycin, reference compound]
Feed Conversion Day 0-21 [4, 10]: 1.709 | Feed Conversion Day 8-21 [4, 10]: 1.719 | Lesion Score E. acer. Upper [4, 10]: 1.00 | Lesion Score E. max. Middle [4, 10]: 1.09 | Live Weight Day 21 [4, 10]: 0.496 | Weight Gain Day 0-21 [4, 10]: 0.458 | Weight Gain Day 8-21 [4, 10]: 0.368

phosphatidylinositol specific phospholipase C [Wild type PI-PLC]
Invasion counts (mean ± standard error of the mean) ([1]; Application of Enzyme During Infection, Test 1, mannanase 5100 U/mL, listed as PI-PLC from B. cereus): 52 ± 13^ab | Invasion counts (mean ± standard error of the mean) [1, 11]: 37 ± 2^ab | Invasion counts (mean ± standard error of the mean) [1, 12]: 38 ± 2^b | Invasion counts (mean ± standard error of the mean) [1, 13]: 21 ± 2^a | clearing zone indicating antibiotic activity (E. coli MG1655): No clearing zone | 8-21 Day Feed Conversion (Corrected) [5, 14]: 1.876 | 8-21 Day Weight Gain [5, 14]: 298.98 | Average Intestinal Lesion Score [5, 14]: 1.267 | effectiveness compared with recombinant counterpart ([5]; Trial II, same concentration (10 U/lb)): did not work as effectively as its recombinant counterpart | Invasion counts (mean ± standard error of the mean) ([3]; Application of Enzyme During Infection, Test 1, listed as PI-PLC from B. cereus): 33 ± 3^b | Invasion counts (mean ± standard error of the mean) [3, 11]: 25 ± 2^ab | Invasion counts (mean ± standard error of the mean) [3, 12]: 15 ± 1^b | Invasion counts (mean ± standard error of the mean) [3, 13]: 26 ± 1^ab | performance compared with the Salinomycin+BMD treatment ([6]; by all criteria (Tables 4-5)): worked as well as or better than the Salinomycin+BMD treatment | Average Body Weight at 21 Days, Mean [6, 15]: 378.71 g and 373.14 g | Average Feed Conversion (0-21 days) Corrected for Weight of Mortality Birds, Mean [6, 15]: 1.425 and 1.419 | Average Body Weight at 21 Days [6, 16]: 377.83 g and 366.67 g and 383.83 g and 361.17 g and 378.83 g and 361.33 g and 374.33 g and 403.40 g | Average Feed Conversion (0-21 days) Corrected for Weight of Mortality Birds [6, 16]: 1.438 and 1.404 and 1.407 and 1.445 and 1.423 and 1.421 and 1.432 and 1.406
